Assays:
[1] = tested on: SMN2 minigene mRNA (SMN2-A minigene) in HEK293H cells; test: SMN2 minigene mRNA splicing RT-qPCR assay in cultured cells; format: cell-based, human; settings: Homo sapiens, HEK293-H; concentration increasing full length SMN2 mRNA 1.5-fold relative to vehicle-treated cells; HEK293H cells with SMN2-A minigene, 24 hours, 7-point concentration data; read-out: EC1.5x for production of full length SMN2 mRNA
Method in brief: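 Stable SMN2-A minigene HEK293H; cpd 7-pt 3.16-fold series, 200× in DMSO, 24 h, 37 °C, n=2. Lysates → multiplex RT-qPCR (minigene FL + GAPDH), efficiency-corrected ΔΔCt vs vehicle. EC1.5× = 1.5-fold FL mRNA gain.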

[2] = tested on: Smn protein in SMA patient fibroblast cells (GM03813); test: Smn protein assay in cultured cells (SMN HTRF); format: cell-based, human; settings: SMA patient fibroblast cells, 48 hours; for EC1.5x for Smn protein expression: 7-point concentration curve, SMN HTRF, concentration producing 1.5 times Smn protein vs DMSO vehicle control; for maximum fold (Fold) increase of Smn protein: 7-point concentration data, fold relative to vehicle control
Method in brief: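 Fibroblasts, SMA patient; 5,000 cells/well; 7-pt curve, 3.16-fold serial dilution; 48 h, 37 °C, 5% CO2; RIPA lysis 1 h RT; anti-SMN d2 + kryptate overnight RT; HTRF 665/620 nm; fold vs DMSO; EC1.5×, max fold.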

melting point [°C]	SMILES	EC (1.5-fold increase) [1] [µM]	EC1.5x for Smn protein expression [2]	maximum fold (Fold) increase of Smn protein [2]
212 to 214	CCCc1nc(C)cn2nc(-c3cc(=O)n4cc(N5C[C@H]6CNC[C@H]6C5)ccc4n3)cc12 [Compound 761, 7-[(3aR,6aS)-hexahydropyrrolo[3,4-c]pyrrol-2(1H)-yl]-2-(6-methyl-4-propylpyrazolo[1,5-a]pyrazin-2-yl)-4H-pyrido[1,2-a]pyrimidin-4-one]	< 0.1	**** (an EC1.5x≤0.3 μM is indicated by four stars (****))	***** (a fold increase >1.65 is indicated by five stars (*****))
220 to 223	Cc1cn2nc(-c3cc(=O)n4cc(N5CC(N6CCCCC6)C5)ccc4n3)cc2c(C)n1 [Compound 765, 2-(4,6-dimethylpyrazolo[1,5-a]pyrazin-2-yl)-7-[3-(piperidin-1-yl)azetidin-1-yl]-4H-pyrido[1,2-a]pyrimidin-4-one]	1 to 3	** (an EC1.5× between >1 μM and ≤3 μM is indicated by two stars (**))	**** (a fold increase between >1.5 and ≤1.65 is indicated by four stars (****))
228 to 230	CCCc1nc(C)cn2nc(-c3cc(=O)n4cc(C5CCNCC5)ccc4n3)cc12 [Compound 766, 2-(6-methyl-4-propylpyrazolo[1,5-a]pyrazin-2-yl)-7-(piperidin-4-yl)-4H-pyrido[1,2-a]pyrimidin-4-one]	< 0.1	**** (an EC1.5x≤0.3 μM is indicated by four stars (****))	***** (a fold increase >1.65 is indicated by five stars (*****))
208 to 210	Cc1cn2nc(-c3cc(=O)n4cc(N5CCC6(CCNC6)C5)ccc4n3)cc2c(C)n1 (stereo not shown) [Compound 767, 7-(2,7-diazaspiro[4.4]non-2-yl)-2-(4,6-dimethylpyrazolo[1,5-a]pyrazin-2-yl)-4H-pyrido[1,2-a]pyrimidin-4-one]	< 0.1	**** (an EC1.5x≤0.3 μM is indicated by four stars (****))	***** (a fold increase >1.65 is indicated by five stars (*****))
216 to 218	Cc1cc(-c2cc(=O)n3cc(N4CCN(C)CC4)ccc3n2)cc2cn(C)nc12 [Compound 768, 2-(2,7-dimethyl-2H-indazol-5-yl)-7-(4-methylpiperazin-1-yl)-4H-pyrido[1,2-a]pyrimidin-4-one]	< 0.1	**** (an EC1.5x≤0.3 μM is indicated by four stars (****))	***** (a fold increase >1.65 is indicated by five stars (*****))
239 to 241	Cc1cn2nc(-c3cc(=O)n4cc(N5CC[C@@H](CN(C)C)C5)ccc4n3)cc2c(C)n1 [Compound 770, 7-{(3S)-3-[(dimethylamino)methyl]pyrrolidin-1-yl}-2-(4,6-dimethylpyrazolo[1,5-a]pyrazin-2-yl)-4H-pyrido[1,2-a]pyrimidin-4-one]	< 0.1	*** (an EC1.5× between >0.3 μM and ≤1 μM is indicated by three stars (***))	**** (a fold increase between >1.5 and ≤1.65 is indicated by four stars (****))
241 to 249	CCc1nc(C)cn2nc(-c3cc(=O)n4cc(C5CCNCC5)cc(C)c4n3)cc12 [Compound 771, 2-(4-ethyl-6-methylpyrazolo[1,5-a]pyrazin-2-yl)-9-methyl-7-(piperidin-4-yl)-4H-pyrido[1,2-a]pyrimidin-4-one]	< 0.1	**** (an EC1.5x≤0.3 μM is indicated by four stars (****))	***** (a fold increase >1.65 is indicated by five stars (*****))
212 to 217	Cc1cc(C2CCNCC2)cn2c(=O)cc(-c3ccc4c(cnn4C)c3)nc12 [Compound 772, 9-methyl-2-(1-methyl-1H-indazol-5-yl)-7-(piperidin-4-yl)-4H-pyrido[1,2-a]pyrimidin-4-one]	< 0.1	**** (an EC1.5x≤0.3 μM is indicated by four stars (****))	***** (a fold increase >1.65 is indicated by five stars (*****))
220 to 222	Cc1cc(-c2cc(=O)n3cc(C4CCNCC4)ccc3n2)cc2cnn(C)c12 [Compound 775, 2-(1,7-dimethyl-1H-indazol-5-yl)-7-(piperidin-4-yl)-4H-pyrido[1,2-a]pyrimidin-4-one]	0.3 to 1	–	*** (a fold increase between >1.35 and ≤1.5 is indicated by three stars (***))

The remaining lines, values behind:

SMILES	melting point [°C]	EC (1.5-fold increase) [1] [µM]	EC1.5x for Smn protein expression [2]	maximum fold (Fold) increase of Smn protein [2]
Cc1cc(-c2cc(=O)n3cc(C4CCN(C)CC4)ccc3n2)cc2cn(C)nc12 [Compound 752, 2-(2,7-dimethyl-2H-indazol-5-yl)-7-(1-methylpiperidin-4-yl)-4H-pyrido[1,2-a]pyrimidin-4-one]	208 to 210	< 0.1	**** (an EC1.5x≤0.3 μM is indicated by four stars (****))	***** (a fold increase >1.65 is indicated by five stars (*****))
CCN1CCC(c2ccc3nc(-c4cc(C)c5nn(C)cc5c4)cc(=O)n3c2)CC1 [Compound 753, 2-(2,7-dimethyl-2H-indazol-5-yl)-7-(1-ethylpiperidin-4-yl)-4H-pyrido[1,2-a]pyrimidin-4-one]	162 to 164	< 0.1	**** (an EC1.5x≤0.3 μM is indicated by four stars (****))	***** (a fold increase >1.65 is indicated by five stars (*****))
Cc1cc(N2CCNCC2)cn2c(=O)cc(-c3ccc4nn(C)cc4c3)nc12 [Compound 754, 9-methyl-2-(2-methyl-2H-indazol-5-yl)-7-(piperazin-1-yl)-4H-pyrido[1,2-a]pyrimidin-4-one]	233 to 243	< 0.1	**** (an EC1.5x≤0.3 μM is indicated by four stars (****))	***** (a fold increase >1.65 is indicated by five stars (*****))
Cc1cn2nc(-c3cc(=O)n4cc(N5CC(N(C)C)C5)ccc4n3)cc2c(C)n1 [Compound 757, 7-[3-(dimethylamino)azetidin-1-yl]-2-(4,6-dimethylpyrazolo[1,5-a]pyrazin-2-yl)-4H-pyrido[1,2-a]pyrimidin-4-one]	226 to 228	0.3 to 1	*** (an EC1.5× between >0.3 μM and ≤1 μM is indicated by three stars (***))	**** (a fold increase between >1.5 and ≤1.65 is indicated by four stars (****))
CCN(CC)C1CN(c2ccc3nc(-c4cc5c(C)nc(C)cn5n4)cc(=O)n3c2)C1 [Compound 758, 7-[3-(diethylamino)azetidin-1-yl]-2-(4,6-dimethylpyrazolo[1,5-a]pyrazin-2-yl)-4H-pyrido[1,2-a]pyrimidin-4-one]	231 to 233	0.3 to 1	–	*** (a fold increase between >1.35 and ≤1.5 is indicated by three stars (***))
Cc1cn2nc(-c3cc(=O)n4cc(N5CC(N6CCCC6)C5)ccc4n3)cc2c(C)n1 [Compound 759, 2-(4,6-dimethylpyrazolo[1,5-a]pyrazin-2-yl)-7-[3-(pyrrolidin-1-yl)azetidin-1-yl]-4H-pyrido[1,2-a]pyrimidin-4-one]	235 to 237	0.1 to 0.3	*** (an EC1.5× between >0.3 μM and ≤1 μM is indicated by three stars (***))	***** (a fold increase >1.65 is indicated by five stars (*****))
CCc1nc(C)cn2nc(-c3cc(=O)n4cc(N5CCCNCC5)ccc4n3)cc12 [Compound 760, 7-(1,4-diazepan-1-yl)-2-(4-ethyl-6-methylpyrazolo[1,5-a]pyrazin-2-yl)-4H-pyrido[1,2-a]pyrimidin-4-one]	212 to 214	< 0.1	**** (an EC1.5x≤0.3 μM is indicated by four stars (****))	***** (a fold increase >1.65 is indicated by five stars (*****))
CCCc1nc(C)cn2nc(-c3cc(=O)n4cc(C5=CCNCC5)ccc4n3)cc12 [Compound 762, 2-(6-methyl-4-propylpyrazolo[1,5-a]pyrazin-2-yl)-7-(1,2,3,6-tetrahydropyridin-4-yl)-4H-pyrido[1,2-a]pyrimidin-4-one]	257 to 260	< 0.1	**** (an EC1.5x≤0.3 μM is indicated by four stars (****))	***** (a fold increase >1.65 is indicated by five stars (*****))
CCc1nc(C)cn2nc(-c3cc(=O)n4cc(C5=CCNCC5)ccc4n3)cc12 [Compound 763, 2-(4-ethyl-6-methylpyrazolo[1,5-a]pyrazin-2-yl)-7-(1,2,3,6-tetrahydropyridin-4-yl)-4H-pyrido[1,2-a]pyrimidin-4-one]	287 to 289	< 0.1	**** (an EC1.5x≤0.3 μM is indicated by four stars (****))	***** (a fold increase >1.65 is indicated by five stars (*****))
